The text below walks through data of patent US12383495B2, “Resident articles for gram-level dosing” (Massachusetts Institute of Technology, priority 2018, dated 2025).

A short description of data set [1]: In vitro drug release from drug-vinylpolysiloxane pills/articles in simulated gastric fluid. Type of data set: physicochemical. To be noted: for in vitro release from drug-VPS pill: SGF, 37° C., up to 28 days.
Experimental: Articles with a series of 30 pills were made so that there was 1 gram of doxycycline hyclate in 2 grams of vinylpolysiloxane. Pills were coated with either cellulose acetate butyrate (CAB) or with Eudragit RS PO. A control with no coatings was also made. The articles were immersed in simulated gastric fluid, and the cumulative release of doxycycline hyclate was measured for more than 26 days. […] Thickness of coatings was tuned by increasing the spray volume. […] Individual pills made of drug-VPS for doxycycline hyclate, isoniazid, ethambutol, pyrazinamide, moxifloxacin were used to evaluate long-term release kinetics in SGF. […] Drug concentrations were then analyzed using a High-Performance Liquid Chromatography (HPLC). […] An Agilent 1260 Infinity II HPLC system (Agilent Technologies, Inc.) equipped with a Model 1260 quaternary pump, Model 1260 High Performance autosampler, Model 1260 thermostat, Model 1260 Infinity Thermostatted Column Compartment control module, and Model 1260 diode array detector was utilized. Data processing and analysis was performed using OpenLab CDS ChemStation (Agilent Technologies, Inc.). All solvents used were purchased from Sigma-Aldrich Corporation. For doxycycline hyclate, chromatographic isocratic separation was carried out on an Agilent 4.6×50 mm AdvanceBio RP-mAb SB-C8 analytical column with 3.5 μm particles, maintained at 55° C. The optimized mobile phase consisted of 20 mM dipotassium phosphate buffer and acetonitrile (pH 6 adjusted with triethylamine) [60:40 (v/v)] at a flow rate of 0.85 mL/min over a 4 min run time. The injection volume was 5 μl, and the selected ultraviolet (UV) detection wavelength was 293 nm.
Data set [2] can be described thus: In vitro drug release from drug-VPS pills/devices in water. Type of data set: physicochemical. The following applies: 37° C.
Experimental: Three intact rifampicin devices were fabricated by loading 2 grams of drug into VPS pills. The devices were incubated in 500 mL of nanopure water for up to 26 days in a shaking incubator at 37° C. and 200 rpm, with media exchange at specified time intervals. […] The drug concentrations samples were then measured on an Infinite M200Pro (Tecan) reader (absorbance, 475 nm).
The conditions of data set [3]: pig, in vivo.

On to `NC(=O)c1cnccn1` [pyrazinamide], for which the “in vitro release from drug-VPS pill” value in data set [1] was “able to release”.

For `NNC(=O)c1ccncc1` [isoniazid], the “in vitro release from drug-VPS pill/device” value in data set [2] is given as “able to release”.

Turning to doxycycline hyclate, the burst release result in data set [1] (PEG 3350 in matrix, pills coated with Eudragit RS PO or Eudragit NM 30D) is on record as “prevented the burst release in the first day”; in data set [1] (article of 30 pills coated with Eudragit RS PO, simulated gastric fluid, vs uncoated control), “prevented the burst release in the first couple days”; in data set [1] (article of 30 pills coated with cellulose acetate butyrate (CAB), simulated gastric fluid, vs uncoated control) it was “prevented the burst release in the first couple days”. Also, the rate of release entry in data set [1] (PEG 3350 in matrix, thicker coating of Eudragit NM 30D) is on record as “slower rate of release”. Moreover, in data set [1] (VPS pills coated with Eudragit RS 100, SGF), the release kinetic profile entry was “linear kinetic profile with limited burst release”. The “duration of drug release (cumulative release)” value in data set [1] (articles of 30 pills, 1 gram drug in 2 grams vinylpolysiloxane, CAB-coated, Eudragit RS PO-coated or uncoated, simulated gastric fluid) was “more than 26 days”. Further, the “burst release and release rate” value in data set [1] (multi-matrix pill (concentric layers of different drug/matrix concentration)) is “reducing the burst release and release rate”; in data set [1] (pills coated with PDMS of different viscosities (750 cst and 25 cst)), “blunted the burst release and slowed down the release rate”. The “effect of excipient on rate of release” value in data set [1] (polyethylene glycol (PEG) 3350 added to drug/siloxane matrix) is listed as “increase the rate of release”. The absorption entry in data set [3] is given as “absorbed rapidly”. Besides, the “duration of detectable drug in serum” value in data set [3] is on record as “at least 28 days”. In addition, in data set [3], the “duration of sustained drug release (non-zero concentrations in the blood)” value is “at least 7 days”.

For the compound `CO[C@H]1/C=C/O[C@@]2(C)Oc3c(C)c(O)c4c(O)c(c(/C=N/N5CCN(C)CC5)c(O)c4c3C2=O)NC(=O)/C(C)=C\C=C\[C@H](C)[C@H](O)[C@@H](C)[C@@H](O)[C@@H](C)[C@H](OC(C)=O)[C@@H]1C` [rifampicin], the “duration of detectable serum concentrations” value in data set [3] is “detectable serum concentrations for a week”.

Regarding `CC[C@@H](CO)NCCN[C@@H](CC)CO` [ethambutol], in data set [1], the “in vitro release from drug-VPS pill” value is reported as “able to release”.
